Laboratory results published in patent publication US10597388B2, “Pyridazinone herbicides” (FMC CORPORATION, priority 2014, dated 2020).

How the values were obtained:
Assay in all cases: Test C greenhouse herbicide test, pre- and postemergence
Assay type in all cases: in vivo
[1] = test system: blackgrass (Alopecurus myosuroides)
How it was run: (§1)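 Each species was treated both before emergence, in a loam–sand soil mix, and after emergence, as 1- to 4-leaf seedlings in peat-based potting medium. Plants stayed in the greenhouse 13 to 15 d, then were scored from 0 (no effect) to 100 (complete control) relative to controls.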

corn (Zea mays) = test system: corn (Zea mays)
How it was run: as §1

[2] = test system: crabgrass, large (large crabgrass, Digitaria sanguinalis)
How it was run: as §1

[3] = test system: foxtail, giant (giant foxtail, Setaria faberii)
How it was run: as §1

[4] = test system: galium (catchweed bedstraw, Galium aparine)
How it was run: as §1

[5] = test system: johnsongrass (Sorghum halepense)
How it was run: as §1

[6] = test system: lambsquarters (Chenopodium album)
How it was run: as §1

[7] = test system: morningglory (Ipomoea coccinea)
How it was run: as §1

[8] = test system: nutsedge, yellow (yellow nutsedge, Cyperus esculentus)
How it was run: as §1

[9] = test system: oilseed rape (Brassica napus)
How it was run: as §1

[10] = test system: pigweed (Amaranthus retroflexus)
How it was run: as §1

[11] = test system: ryegrass, Italian (Italian ryegrass, Lolium multiflorum)
How it was run: as §1

soybean (Glycine max) = test system: soybean (Glycine max)
How it was run: as §1

[12] = test system: velvetleaf (Abutilon theophrasti)
How it was run: as §1

[13] = test system: waterhemp (common waterhemp, Amaranthus rudis)
How it was run: as §1

[14] = test system: wheat (winter wheat, Triticum aestivum)
How it was run: as §1

[15] = Postemergence, 31 g ai/ha, scale 0 to 100 (0 no effect, 100 complete control)
[16] = Postemergence, 125 g ai/ha, scale 0 to 100, 0 is no effect, 100 is complete control
[17] = Postemergence, 250 g ai/ha, scale 0 to 100, 0 no effect, 100 complete control, 13 to 15 d
[18] = Preemergence, 31 g ai/ha, scale 0 to 100, 0 is no effect, 100 is complete control
[19] = Preemergence, 62 g ai/ha, scale 0 to 100, 0 is no effect, 100 is complete control
[20] = Preemergence, 125 g ai/ha, scale 0 to 100, 0 is no effect, 100 is complete control
[21] = Preemergence, 250 g ai/ha, scale 0 to 100 (0 no effect, 100 complete control)
[22] = postemergence, 62 g ai/ha, scale 0 to 100, 0 no effect, 100 complete control

Cc1ccc2ccccc2c1-c1c(O)c(Cl)nn(C)c1=O [Compound 125]
80: Plant response rating, Blackgrass [1, 17]
60: Plant response rating, Blackgrass [1, 16] | Plant response rating, Crabgrass, Large [2, 17] | Plant response rating, Johnsongrass [5, 20]
100: Plant response rating, Foxtail, Giant [3, 19] | Foxtail, Giant plant response rating [3, 21] | Plant response rating, Galium [4, 18] | Plant response rating, Galium [4, 19] | Plant response rating, Galium [4, 20] | Galium plant response rating [4, 21] | Plant response rating, Lambsquarters [6, 17] | Plant response rating, Lambsquarters [6, 19] | Plant response rating, Lambsquarters [6, 20] | Lambsquarters plant response rating [6, 21] | Plant response rating, Morningglory [7, 16] | Plant response rating, Morningglory [7, 17] | Oilseed Rape plant response rating [9, 21] | Plant response rating, Pigweed [10, 18] | Plant response rating, Pigweed [10, 19] | Plant response rating, Pigweed [10, 20] | Pigweed plant response rating [10, 21] | Plant response rating, Velvetleaf [12, 19] | Plant response rating, Velvetleaf [12, 20] | Velvetleaf plant response rating [12, 21] | Plant response rating, Waterhemp [13, 17] | Plant response rating, Waterhemp [13, 19] | Plant response rating, Waterhemp [13, 20] | Waterhemp plant response rating [13, 21]
35: Crabgrass, Large plant response rating [2, 22] | Plant response rating, Nutsedge, Yellow [8, 15] | Soybean plant response rating (soybean (Glycine max); [21]) | Plant response rating, Wheat [14, 17]
5: Plant response rating, Corn (corn (Zea mays); [15]) | Plant response rating, Corn (corn (Zea mays); [16]) | Plant response rating, Corn (corn (Zea mays); [17]) | Plant response rating, Johnsongrass [5, 15] | Plant response rating, Oilseed Rape [9, 16] | Plant response rating, Soybean (soybean (Glycine max); [19])
70: Plant response rating, Foxtail, Giant [3, 15] | Johnsongrass plant response rating [5, 21]
75: Plant response rating, Crabgrass, Large [2, 20]
10: Plant response rating, Oilseed Rape [9, 17] | Plant response rating, Soybean (soybean (Glycine max); [16]) | Plant response rating, Soybean (soybean (Glycine max); [17])
45: Blackgrass plant response rating [1, 22] | Plant response rating, Crabgrass, Large [2, 19] | Plant response rating, Wheat [14, 19]
98: Crabgrass, Large plant response rating [2, 21] | Plant response rating, Foxtail, Giant [3, 17] | Plant response rating, Foxtail, Giant [3, 20] | Plant response rating, Lambsquarters [6, 16] | Morningglory plant response rating [7, 21] | Plant response rating, Pigweed [10, 16] | Plant response rating, Pigweed [10, 17] | Plant response rating, Velvetleaf [12, 17] | Plant response rating, Waterhemp [13, 16] | Plant response rating, Waterhemp [13, 18]
55: Plant response rating, Blackgrass [1, 19] | Plant response rating, Blackgrass [1, 20] | Corn plant response rating (corn (Zea mays); [21]) | Plant response rating, Johnsongrass [5, 19]
50: Plant response rating, Blackgrass [1, 18]
0: Plant response rating, Corn (corn (Zea mays); [18]) | Plant response rating, Corn (corn (Zea mays); [19]) | Corn plant response rating (corn (Zea mays); [22]) | Plant response rating, Oilseed Rape [9, 15] | Plant response rating, Oilseed Rape [9, 19] | Plant response rating, Soybean (soybean (Glycine max); [15]) | Plant response rating, Soybean (soybean (Glycine max); [18]) | Plant response rating, Wheat [14, 15]
40: Plant response rating, Crabgrass, Large [2, 16] | Plant response rating, Crabgrass, Large [2, 18] | Plant response rating, Johnsongrass [5, 18] | Plant response rating, Wheat [14, 18]
25: Plant response rating, Crabgrass, Large [2, 15]
20: Plant response rating, Blackgrass [1, 15] | Plant response rating, Corn (corn (Zea mays); [20]) | Plant response rating, Johnsongrass [5, 16] | Plant response rating, Johnsongrass [5, 17]
85: Plant response rating, Nutsedge, Yellow [8, 16] | Plant response rating, Oilseed Rape [9, 18] | Plant response rating, Oilseed Rape [9, 20] | Plant response rating, Ryegrass, Italian [11, 15] | Plant response rating, Ryegrass, Italian [11, 18] | Plant response rating, Velvetleaf [12, 15] | Plant response rating, Waterhemp [13, 15]
30: Plant response rating, Soybean (soybean (Glycine max); [20]) | Plant response rating, Wheat [14, 16]
95: Plant response rating, Foxtail, Giant [3, 16] | Plant response rating, Foxtail, Giant [3, 18] | Plant response rating, Galium [4, 15] | Plant response rating, Galium [4, 16] | Plant response rating, Galium [4, 17] | Plant response rating, Morningglory [7, 15] | Plant response rating, Morningglory [7, 19] | Plant response rating, Morningglory [7, 20] | Plant response rating, Nutsedge, Yellow [8, 19] | Plant response rating, Nutsedge, Yellow [8, 20] | Plant response rating, Pigweed [10, 15] | Plant response rating, Ryegrass, Italian [11, 16] | Plant response rating, Ryegrass, Italian [11, 17] | Plant response rating, Ryegrass, Italian [11, 19] | Plant response rating, Ryegrass, Italian [11, 20] | Ryegrass, Italian plant response rating [11, 21] | Plant response rating, Velvetleaf [12, 16] | Plant response rating, Velvetleaf [12, 18]
90: Blackgrass plant response rating [1, 21] | Plant response rating, Lambsquarters [6, 15] | Plant response rating, Lambsquarters [6, 18] | Plant response rating, Morningglory [7, 18] | Plant response rating, Nutsedge, Yellow [8, 17] | Nutsedge, Yellow plant response rating [8, 21] | Plant response rating, Wheat [14, 20] | Wheat plant response rating [14, 21]
65: Plant response rating, Nutsedge, Yellow [8, 18]
